Molecules are shown by their SMILES.

Test [1] deals with MCF7. In words: Anticancer activity against human MCF7 cells assessed as cell growth inhibition measured by MTT assay. The class given is functional, cell-based.
Test [2] concerns HepG2. In words: Anticancer activity against human HepG2 cells assessed as cell growth inhibition measured by MTT assay. The class given is functional, cell-based.
In test [3] the test system is HCT-116. Description: Anticancer activity against human HCT-116 cells assessed as cell growth inhibition measured by MTT assay. The class given is functional, cell-based.
Test [4] relates to PC-3. In words: Anticancer activity against human PC-3 cells assessed as cell growth inhibition measured by MTT assay. The class given is functional, cell-based.
Test [5] deals with Epidermal growth factor receptor (Homo sapiens, UniProt P00533). In words: Inhibition of recombinant wild type EGFR-TK (unknown origin) by ELISA.
Chain of Epidermal growth factor receptor (P00533 whole entry): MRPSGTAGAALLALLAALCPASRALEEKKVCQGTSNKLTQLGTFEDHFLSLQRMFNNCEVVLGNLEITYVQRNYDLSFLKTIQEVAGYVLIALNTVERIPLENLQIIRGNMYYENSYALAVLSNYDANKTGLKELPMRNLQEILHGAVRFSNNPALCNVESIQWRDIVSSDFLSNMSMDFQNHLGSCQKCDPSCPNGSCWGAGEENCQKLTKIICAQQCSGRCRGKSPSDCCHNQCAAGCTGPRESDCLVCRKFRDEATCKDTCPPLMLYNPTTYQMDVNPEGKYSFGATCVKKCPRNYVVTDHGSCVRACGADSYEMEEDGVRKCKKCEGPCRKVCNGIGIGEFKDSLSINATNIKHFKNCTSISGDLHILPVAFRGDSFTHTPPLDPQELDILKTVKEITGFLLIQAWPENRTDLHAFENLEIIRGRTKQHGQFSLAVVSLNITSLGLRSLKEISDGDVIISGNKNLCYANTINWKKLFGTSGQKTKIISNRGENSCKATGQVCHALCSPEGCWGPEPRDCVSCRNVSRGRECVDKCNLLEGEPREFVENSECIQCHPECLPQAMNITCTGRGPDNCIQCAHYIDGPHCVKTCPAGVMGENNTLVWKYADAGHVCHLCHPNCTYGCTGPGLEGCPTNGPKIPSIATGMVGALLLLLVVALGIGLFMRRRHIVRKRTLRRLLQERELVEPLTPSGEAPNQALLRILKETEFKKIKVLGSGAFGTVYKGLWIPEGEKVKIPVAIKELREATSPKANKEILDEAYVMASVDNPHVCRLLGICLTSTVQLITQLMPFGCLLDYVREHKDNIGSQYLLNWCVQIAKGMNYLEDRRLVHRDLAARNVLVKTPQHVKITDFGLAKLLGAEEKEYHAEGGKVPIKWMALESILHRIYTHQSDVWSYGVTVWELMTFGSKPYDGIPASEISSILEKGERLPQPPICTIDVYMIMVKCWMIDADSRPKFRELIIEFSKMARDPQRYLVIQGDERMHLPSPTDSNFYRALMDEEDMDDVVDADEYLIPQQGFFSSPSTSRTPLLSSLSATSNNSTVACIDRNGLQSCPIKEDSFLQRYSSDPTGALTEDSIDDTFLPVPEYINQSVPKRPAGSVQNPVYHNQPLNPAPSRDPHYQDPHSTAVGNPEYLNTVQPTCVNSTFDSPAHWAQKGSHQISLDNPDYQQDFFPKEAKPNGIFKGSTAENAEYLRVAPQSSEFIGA

With `COc1ccc(NC(c2ccc(OC)cc2)n2c(=O)ccc3cc(O)ccc32)cc1` (centres undefined), the IC50 in test [1] amounted to 49.2 µM; in test [2] it was 61.4 µM; in test [3], 73.3 µM; in test [4] it was 85.3 µM; in test [5] it was 5.29 µM.

Take `COc1ccc(C(Nc2ccccc2)n2c(=O)ccc3cc(O)ccc32)cc1` (centres undefined): the IC50 in test [1] was 35.1 µM; in test [2], 46.3 µM; in test [3] it was 53.7 µM; in test [4] it was 79.7 µM; in test [5] it was 14.3 µM.

Take `COc1ccc(C(Nc2ccc([N+](=O)[O-])cc2)n2c(=O)ccc3cc(O)ccc32)cc1` (centres undefined): the IC50 was determined as 21.1 µM in test [1]; 29.7 µM in test [2]; 36.6 µM in test [3]; 48 µM in test [4]; 1.35 µM in test [5].

Turning to `COc1ccc(C(Nc2ccc(Br)cc2)n2c(=O)ccc3cc(O)ccc32)cc1` (centres undefined), the IC50 in test [1] amounted to 10.8 µM; in test [2] it was 18.3 µM; in test [3] it was 19.6 µM; in test [4], 32.9 µM; in test [5], 0.96 µM.

Take `C#Cc1cccc(Nc2ncnc3cc(OCCOC)c(OCCOC)cc23)c1` [ERLOTINIB]: the IC50 is 11.6 µM in test [1], 17.7 µM in test [2], 20.5 µM in test [3] and 26.9 µM in test [4].

In the case of `COc1ccc(C(Nc2ccc(Cl)cc2)n2c(=O)ccc3cc(O)ccc32)cc1` (centres undefined), the IC50 in test [1] was 11.3 µM; in test [2], 21.5 µM; in test [3] it was 20.4 µM; in test [4], 35.2 µM; in test [5], 1.13 µM.

The values are drawn from ChEMBL document CHEMBL4834452, “Discovery of a novel series of substituted quinolines acting as anticancer agents and selective EGFR blocker: Molecular docking study” (Bioorg Med Chem Lett, 2021).
